Measurements published in patent US20240360151A1 (SANOFI, priority 2023, published 2024).

Experiments:
[1] = biological target: T1, NLRP3 inflammasome (Homo sapiens, UniProt Q96P20); experiment: IL-1β secretion assay (NLRP3 IC50) in LPS-primed, nigericin-activated THP-1 cells, HTRF; type: cell-based; details: monocytic THP-1 cells; LPS 10 ng/mL 3 h priming, then compound + nigericin 10 μM 2 h; relative IC50, 10 concentrations, geometric mean
T1 construct: endogenous in cells; host or cells: THP-1 monocytic cells
How it was run: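 IL-1β in supernatant read by HTRF after 2 h co-incubation of compound (0.1% DMSO, 10 concentrations, 1:3 series) with nigericin at 10 μM final, following 3 h LPS (10 ng/mL) priming of THP-1 monocytes at 37° C. Inhibition normalised to unactivated and no-compound controls; geometric-mean relative IC50 from 4-parameter logistic model.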

[2] = test system: NF-kB pathway (TNF-α secretion by THP-1 cells); experiment: TNF-α secretion assay in LPS-stimulated THP-1 cells, Lumit immunoassay; type: cell-based, human; details: Homo sapiens, THP-1, 3 h, monocytic THP-1 cells, LPS 10 ng/mL, relative IC50, 10 concentrations, geometric mean
How it was run: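 TNF-α release was quantified directly in the cell plate by Lumit immunoassay after a 3-h, 10 ng/mL LPS trigger of compound-treated THP-1 cells (RPMI, 5% FBS). Percent inhibition versus no-compound and unstimulated controls fed a 4-parameter logistic fit over 10 concentrations, giving geometric-mean relative IC50.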

T1 sequence (Q96P20 whole entry): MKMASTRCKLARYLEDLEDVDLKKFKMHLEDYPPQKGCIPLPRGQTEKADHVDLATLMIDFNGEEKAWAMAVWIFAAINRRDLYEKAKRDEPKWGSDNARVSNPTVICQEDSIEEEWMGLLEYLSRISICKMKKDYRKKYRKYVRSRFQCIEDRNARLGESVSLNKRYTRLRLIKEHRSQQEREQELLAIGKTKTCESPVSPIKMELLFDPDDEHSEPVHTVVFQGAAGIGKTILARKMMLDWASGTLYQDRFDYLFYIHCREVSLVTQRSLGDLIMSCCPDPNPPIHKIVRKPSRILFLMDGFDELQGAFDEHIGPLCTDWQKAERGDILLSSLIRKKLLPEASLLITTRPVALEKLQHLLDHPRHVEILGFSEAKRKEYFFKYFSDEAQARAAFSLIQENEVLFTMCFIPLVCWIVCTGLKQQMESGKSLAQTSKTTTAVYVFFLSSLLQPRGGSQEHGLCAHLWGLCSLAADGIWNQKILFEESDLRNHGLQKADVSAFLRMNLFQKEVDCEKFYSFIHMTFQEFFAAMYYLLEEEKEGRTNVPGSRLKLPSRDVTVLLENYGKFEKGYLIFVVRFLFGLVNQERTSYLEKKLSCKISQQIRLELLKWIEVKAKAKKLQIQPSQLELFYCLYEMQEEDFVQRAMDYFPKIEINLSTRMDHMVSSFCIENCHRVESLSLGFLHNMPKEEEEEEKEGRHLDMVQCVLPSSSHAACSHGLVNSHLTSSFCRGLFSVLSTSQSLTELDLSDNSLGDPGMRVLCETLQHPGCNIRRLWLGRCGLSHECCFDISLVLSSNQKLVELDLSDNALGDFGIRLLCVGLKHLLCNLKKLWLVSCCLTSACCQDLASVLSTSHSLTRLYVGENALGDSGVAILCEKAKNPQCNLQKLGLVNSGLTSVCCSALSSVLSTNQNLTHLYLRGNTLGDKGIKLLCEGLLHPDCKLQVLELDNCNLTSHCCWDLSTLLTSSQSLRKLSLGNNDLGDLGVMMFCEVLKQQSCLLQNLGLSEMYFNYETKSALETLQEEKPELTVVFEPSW

Compound | IC50 [1] [nM] | IC50 [2] [nM]
Cc1cc(C)c(-c2ccc(N3CCC[C@@H](N)C3)nn2)c(O)c1 [Example 31, 2-[6-[(3R)-3-amino-1-piperidyl]pyridazin-3-yl]-3,5-dimethyl-phenol; formic acid] | 520 | > 10000
Cc1cc(C(F)(F)F)cc(O)c1-c1ccc(N2CC[C@H]3CN(C)C[C@H]32)nn1 (racemic) [Example 265, 2-[6-[rac-(3aS,6aS)-5-methyl-2,3,3a,4,6,6a-hexahydropyrrolo[3,4-b]pyrrol-1-yl]pyridazin-3-yl]-3-methyl-5-(trifluoromethyl)phenol] | 314 | > 10000
Cc1cc(C(F)(F)F)cc(O)c1-c1ccc(N2CCN(C)CC2)nn1 [Example 29, 3-methyl-2-[6-(4-methylpiperazin-1-yl)pyridazin-3-yl]-5-(trifluoromethyl)phenol] | 332 | > 10000
Cc1cc(O)c(-c2ccc(N3CCO[C@H](CO)C3)nn2)c(Cl)c1 [Example 172, 3-chloro-2-[6-[(2S)-2-(hydroxymethyl)morpholin-4-yl]pyridazin-3-yl]-5-methyl-phenol] | 36 | > 10000
Cc1cc(C(F)(F)F)cc(O)c1-c1ccc(N2CCOC(C(C)(C)O)C2)nn1 (single isomer, unassigned) [Example 53, 2-[6-[2-(1-hydroxy-1-methyl-ethyl)morpholin-4-yl]pyridazin-3-yl]-3-methyl-5-(trifluoromethyl)phenol] | 275 | > 10000
Cc1cc(C)c(-c2ccc(N3CCC[C@H](N)C3)nn2)c(O)c1 [Example 69, 2-[6-[(3S)-3-amino-1-piperidyl]pyridazin-3-yl]-3,5-dimethyl-phenol] | 200 | > 10000
Cc1cc(Cl)cc(O)c1-c1nnc(N2CCO[C@H](CO)C2)cc1C(F)F [Example 249, 5-chloro-2-[4-(difluoromethyl)-6-[(2S)-2-(hydroxymethyl)morpholin-4-yl]pyridazin-3-yl]-3-methyl-phenol] | 151 | > 10000
Cc1cc(C)c(-c2ccc(N3CCc4c(O)cccc43)nn2)c(O)c1 [Example 240, 1-[6-(2-hydroxy-4,6-dimethyl-phenyl)pyridazin-3-yl]indolin-4-ol] | 421 | > 10000
Cc1cc(C(F)(F)F)cc(O)c1-c1ccc(N2CC[C@H](CO)C2)nn1 [Example 20, 2-[6-[(3S)-3-(hydroxymethyl)pyrrolidin-1-yl]pyridazin-3-yl]-3-methyl-5-(trifluoromethyl)phenol] | 44 | > 10000
OC[C@@H]1CN(c2cc(C(F)F)c(-c3ccc(Cl)cc3O)nn2)CCO1 [Example 145, 5-chloro-2-[4-(difluoromethyl)-6-[(2S)-2-(hydroxymethyl)morpholin-4-yl]pyridazin-3-yl]phenol] | 34 | > 10000
Cc1cc(N2CCO[C@H](CO)C2)nnc1-c1c(C)cc(Cl)cc1O [Example 149, 5-chloro-2-[6-[(2S)-2-(hydroxymethyl)morpholin-4-yl]-4-methyl-pyridazin-3-yl]-3-methyl-phenol] | 52 | > 10000
CCN1C[C@@H]2CCN(c3ccc(-c4c(C)cc(C(F)(F)F)cc4O)nn3)[C@@H]2C1 (racemic) [Example 243, 2-[6-[rac-(3aS,6aS)-5-ethyl-2,3,3a,4,6,6a-hexahydropyrrolo[3,4-b]pyrrol-1-yl]pyridazin-3-yl]-3-methyl-5-(trifluoromethyl)phenol] | 21 | > 10000
Cc1cc(C(F)(F)F)cc(O)c1-c1ccc(N2CCO[C@H]3CCNC[C@H]32)nn1 (single isomer, unassigned) [Example 251] | 21 | > 10000
CN(C)C[C@@H]1CCN(c2ccc(-c3c(O)cc(Cl)cc3Cl)nn2)C1 [Example 40, 3,5-dichloro-2-[6-[(3S)-3-[(dimethylamino)methyl]pyrrolidin-1-yl]pyridazin-3-yl]phenol] | 420 | > 10000
Cc1cc(C)c(-c2ccc(N3CCCc4c(O)cccc43)nn2)c(O)c1 [Example 232, 1-[6-(2-hydroxy-4,6-dimethyl-phenyl)pyridazin-3-yl]-3,4-dihydro-2H-quinolin-5-ol] | 502 | 7630
OC[C@@H]1CN(c2ccc(-c3c(O)cc(Cl)cc3Cl)nn2)CCO1 [Example 21, 3,5-dichloro-2-[6-[(2S)-2-(hydroxymethyl)morpholin-4-yl]pyridazin-3-yl]phenol] | 20 | > 10000
Cc1cc(C(F)(F)F)cc(O)c1-c1ccc(N2CC[C@H]3CNC[C@H]32)nn1 (racemic) [Example 229, 2-[6-[rac-(3aS,6aS)-3,3a,4,5,6,6a-hexahydro-2H-pyrrolo[3,4-b]pyrrol-1-yl]pyridazin-3-yl]-3-methyl-5-(trifluoromethyl)phenol] | 42 | > 10000

Now from value to molecule:

IC50 [1] [nM] | IC50 [2] [nM] | Compound
1 | > 10000 | Cc1cc(N2CCO[C@@H]3CCN(C)C[C@@H]32)nnc1-c1ccc(Cl)cc1O [Example 379, 2-[6-[(4aS,8aR)-6-methyl-3,4a,5,7,8,8a-hexahydro-2H-pyrido[4,3-b][1,4]oxazin-4-yl]-4-methyl-pyridazin-3-yl]-5-chloro-phenol]
42 | > 10000 | Cc1ccc(-c2nnc(N3CC[C@@H]4CCN(C)C[C@@H]43)cc2C)c(O)c1 (single isomer, unassigned) [Example 374]
10 | > 10000 | CCc1cc(N2CCO[C@@H]3CCN(C)C[C@@H]32)nnc1-c1ccc(C(F)(F)F)cc1O [Example 443, 2-[6-[(4aS,8aR)-6-methyl-3,4a,5,7,8,8a-hexahydro-2H-pyrido[4,3-b][1,4]oxazin-4-yl]-4-ethyl-pyridazin-3-yl]-5-(trifluoromethyl)phenol]
33 | > 10000 | Cc1cc(C)c(-c2ccc(N3C[C@@H](CO)O[C@@H](C)C3)nn2)c(O)c1 [Example 390, 2-[6-[(2S,6S)-2-(hydroxymethyl)-6-methyl-morpholin-4-yl]pyridazin-3-yl]-3,5-dimethyl-phenol]
61 | > 10000 | Cc1cc(N2CCO[C@@H]3CCN(C)C[C@@H]32)nnc1-c1cccc(F)c1O [Example 356, 2-[6-[(4aS,8aR)-6-methyl-3,4a,5,7,8,8a-hexahydro-2H-pyrido[4,3-b][1,4]oxazin-4-yl]-4-methyl-pyridazin-3-yl]-6-fluoro-phenol]
< 0.36 | > 10000 | CCN1CC[C@H]2CCN(c3ccc(-c4c(C)cc(C(F)(F)F)cc4O)nn3)[C@H]2C1 (single isomer, unassigned) [Example 429]
23 | > 10000 | CC(=O)N1CC[C@H]2OCCN(c3ccc(-c4c(C)cc(Cl)cc4O)nn3)[C@H]2C1 (single isomer, unassigned) [Example 397]
19 | > 10000 | CC(=O)N1CC[C@H]2OCCN(c3cc(C(F)F)c(-c4ccc(C(F)(F)F)cc4O)nn3)[C@H]2C1 [Example 386, 1-[(4aS,8aR)-4-[5-(difluoromethyl)-6-[2-hydroxy-4-(trifluoromethyl)phenyl]pyridazin-3-yl]-3,4a,5,7,8,8a-hexahydro-2H-pyrido[4,3-b][1,4]oxazin-6-yl]ethanone]
